From patent US20140066385A1, “METHOD FOR TREATING CANCER BY COMBINED USE OF DRUGS” (Astellas Pharma Inc., priority 2011, published 2014)

How the values were obtained:
[1] = tested on: Human lung cancer-derived Calu 6 (HTB-56); assay: Example 1: anti-tumor effect of FK330 alone or combined with chemotherapeutic agents in Calu-6 tumor-bearing nude mice; assay type: in vivo
Text: A free-form dihydrate of FK330 was used. Hereinafter, the amount of FK330 administered is expressed in weight of the dihydrate. A docetaxel hydrate injectable preparation (Taxotere (trademark), for intravenous infusion) was purchased from Sanofi-Aventis SA, and was used as docetaxel. A paclitaxel injectable preparation (paclitaxel injection liquid “Sawai”) was purchased from Sawai Pharmaceutical Co., Ltd., and was used as paclitaxel. Irinotecan hydrochloride (Topotesin (trade name) injection) was purchased from Daiichi Sankyo Co., Ltd., and was used as irinotecan. Gemcitabine hydrochloride for injection (Gemzar (trade name) injection) was purchased from Eli Lilly Japan K.K., and was used as gemcitabine. Doxorubicin hydrochloride for injection (Adriacin (trade name) Injection 10) was purchased from Kyowa Hakko Kogyo Co., Ltd., and was used as doxorubicin. A carboplatin injection liquid (Paraplatin (trade name) injection liquid) was purchased from Bristol Myers Squibb Co., and was used as carboplatin.
FK330 was suspended (20 mg/mL) in a 0.5% aqueous methyl cellulose solution (0.5% MC). Docetaxel was prepared in the attached dissolution liquid at 4 mg/mL, and was diluted with physiological saline (Otsuka Pharmaceutical Group) to 1 mg/mL. Paclitaxel, irinotecan, gemcitabine, doxorubicin, and carboplatin were prepared with physiological saline for injection at the time of use at concentrations of 1 mg/mL, 3 mg/mL, 16 mg/mL, 1 mg/mL, and 6 mg/mL, respectively.
Human lung cancer-derived Calu 6 (HTB-56) was obtained from American Type Culture Collection (VA, USA). The cells were cultured under the conditions of 37° C. and 5% CO2 by using RPMI1640 medium containing 10% heat-inactivated fetal bovine serum (FBS). The cells were harvested with trypsin and were suspended in PBS at 6×10^7 cells/mL, and the suspension was mixed with an equal amount of Matrigel (trade name) Basement Membrane Matrix (manufactured by Becton Dickinson Co., Bedford, Mass., USA).
Five-week old male nude mice (CAnN Cg-Foxn1nu/CrlCrlj(nu/nu)) were purchased from Charles River Laboratories Japan, Inc. (Japan, Kanagawa). The animals were raised under specific pathogen-free (SPF) conditions throughout the test period by feeding standard feedstuff and drinking water. The cultured cells were subcutaneously inoculated into the dorsal region of the nude mice at a concentration of 3×10^6 cells/0.1 mL/mouse. Nude mice which had the tumor volumes (major axis×[minor axis]^2×0.52) ranging from 111.9 mm^3 to 369.3 mm^3 were assigned by using SAS to minimize the fluctuation in tumor volume between the groups and within the group.
The first day of administration was designated as Day 1, and observation was made until Day 29. The respective groups (n=5 or 6) were treated as follows. FK330 was orally gavaged (5 mL/kg) twice a day at an interval of 6 to 8 hours, and each of the chemotherapeutic agents was administered by intravenous bolus injection (10 mL/kg) through the tail vein.
FK330 single administration group: 100 mg/kg of FK330 was administered twice a day (bid) (200 mg/kg/day, administered every day from the initiation of experiment to the completion)
Docetaxel single administration group: Docetaxel 10 mg/kg/day (Day 1, 5 and 9)
Paclitaxel single administration group: Paclitaxel 10 mg/kg/day (Day 1 through 7)
Irinotecan single administration group: lrinotecan 30 mg/kg/day (Day 1 through 7)
Gemcitabine single administration group: Gemcitabine 160 mg/kg/day (Day 1, 4 and 7)
Doxorubicin single administration group: Doxorubicin 10 mg/kg/day (Day 1 and 8)
Carboplatin single administration group: Carboplatin 60 mg/kg/day (Day 1 and 2)
FK330 100 mg/kg bid+Docetaxel 10 mg/kg/day (Day 1, 5 and 9), n=6
FK330 100 mg/kg bid+Paclitaxel 10 mg/kg/day (Day 1 through 7), n=6
FK330 100 mg/kg bid+Irinotecan 30 mg/kg/day (Day 1 through 7), n=6
FK330 100 mg/kg bid+Gemcitabine 160 mg/kg/day (Day 1, 4 and 7), n=6
FK330 100 mg/kg bid+Doxorubicin 10 mg/kg/day (Day 1 and 8), n=6 […]

[2] = molecular target: inducible nitric oxide synthase (inducible NOS, iNOS) (Homo sapiens, UniProt P35228); details: reported in Non-Patent Document 1; cited from earlier work
Chain of inducible nitric oxide synthase (inducible NOS, iNOS) (P35228 whole entry): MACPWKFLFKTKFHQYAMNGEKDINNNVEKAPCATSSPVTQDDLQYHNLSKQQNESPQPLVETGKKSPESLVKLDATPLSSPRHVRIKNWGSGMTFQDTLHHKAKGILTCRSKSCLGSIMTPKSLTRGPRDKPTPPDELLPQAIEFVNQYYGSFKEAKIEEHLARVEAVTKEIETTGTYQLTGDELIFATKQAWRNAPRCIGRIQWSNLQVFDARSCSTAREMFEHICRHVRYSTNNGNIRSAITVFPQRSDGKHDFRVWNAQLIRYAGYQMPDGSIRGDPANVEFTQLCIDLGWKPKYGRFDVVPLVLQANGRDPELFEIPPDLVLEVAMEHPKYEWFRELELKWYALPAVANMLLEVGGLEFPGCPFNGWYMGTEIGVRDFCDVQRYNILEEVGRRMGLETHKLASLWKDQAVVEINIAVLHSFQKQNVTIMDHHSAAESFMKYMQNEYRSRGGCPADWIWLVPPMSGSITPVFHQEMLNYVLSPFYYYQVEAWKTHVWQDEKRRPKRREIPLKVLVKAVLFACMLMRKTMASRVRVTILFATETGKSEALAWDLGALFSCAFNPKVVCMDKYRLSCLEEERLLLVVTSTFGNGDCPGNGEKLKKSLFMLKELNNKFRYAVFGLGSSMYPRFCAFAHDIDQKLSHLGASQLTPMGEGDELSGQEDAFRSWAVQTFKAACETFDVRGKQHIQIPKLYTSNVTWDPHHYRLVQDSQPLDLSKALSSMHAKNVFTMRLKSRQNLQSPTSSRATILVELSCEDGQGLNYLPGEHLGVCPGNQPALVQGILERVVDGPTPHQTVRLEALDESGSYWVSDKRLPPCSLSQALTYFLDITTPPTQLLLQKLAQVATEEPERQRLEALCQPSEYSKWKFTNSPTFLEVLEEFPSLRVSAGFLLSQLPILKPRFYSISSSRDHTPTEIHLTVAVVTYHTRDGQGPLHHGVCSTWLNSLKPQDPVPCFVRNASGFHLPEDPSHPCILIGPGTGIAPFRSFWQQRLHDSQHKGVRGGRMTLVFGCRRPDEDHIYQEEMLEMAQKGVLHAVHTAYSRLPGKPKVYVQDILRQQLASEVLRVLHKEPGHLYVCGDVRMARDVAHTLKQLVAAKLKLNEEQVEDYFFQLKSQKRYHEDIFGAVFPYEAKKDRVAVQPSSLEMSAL

O=C(/C=C/c1ccc(Cl)cc1)N[C@@H](Cc1ccccn1)C(=O)NCC(=O)N1CCC(Oc2cc(C(F)(F)F)ncn2)CC1 [FK330, N^2-[(2E)-3-(4-chlorophenyl)-2-propenoyl]-N-[2-oxo-2-(4-{[6-(trifluoromethyl)pyrimidin-4-yl]oxy}piperidin-1-yl)ethyl]-3-pyridin-2-yl-L-alaninamide]
tumor volume reduction ratio compared with docetaxel-only group ([1]; Day 29, FK330 100 mg/kg bid p.o. + docetaxel 10 mg/kg/day i.v. (Day 1, 5 and 9), significant): 63.5%
tumor volume reduction ratio compared with doxorubicin-only group ([1]; Day 29, FK330 100 mg/kg bid p.o. + doxorubicin 10 mg/kg/day i.v. (Day 1 and 8), not significant): 33.5%
tumor volume reduction ratio compared with irinotecan-only group ([1]; Day 29, FK330 100 mg/kg bid p.o. + irinotecan 30 mg/kg/day i.v. (Day 1 through 7), not significant): 30.8%
tumor volume reduction ratio compared with paclitaxel-only group ([1]; Day 29, FK330 100 mg/kg bid p.o. + paclitaxel 10 mg/kg/day i.v. (Day 1 through 7), significant): 57.6%
effect of FK330 on the anti-tumor effect of carboplatin ([1]; FK330 100 mg/kg bid p.o. + carboplatin 60 mg/kg/day i.v. (Day 1 and 2)): did not affect
effect of FK330 on the anti-tumor effect of gemcitabine ([1]; FK330 100 mg/kg bid p.o. + gemcitabine 160 mg/kg/day i.v. (Day 1, 4 and 7)): did not affect
anti-tumor effect when FK330 was used alone ([1]; FK330 100 mg/kg bid p.o. alone, every day, observation until Day 29): not recognized
inducible nitric oxide synthase (iNOS) inhibitory activity [2]: excellent
